Measurements published in PubChem BioAssay AID1259407 (Chemical Carcinogenesis Research Information System (CCRIS), 2018).
Activity calls are given as the source filed them. No rule for the calls is given here.

System: CCRIS mutagenicity, Ames/micronucleus/aberration tests
Assay: CCRIS mutagenicity studies
[1] = Test System: AMES SALMONELLA TYPHIMURIUM, Strain/Indicator: TA98, Metabolic Activation: NONE, Method: PREINCUBATION
[2] = Test System: AMES SALMONELLA TYPHIMURIUM, Strain/Indicator: TA100, Metabolic Activation: NONE, Method: PREINCUBATION

Measured: mutagenic call

Nc1nc(-c2ccc([N+](=O)[O-])cc2)nc2c1ncn2[C@H]1C[C@H](O)[C@@H](CO)O1
active: Test System: AMES SALMONELLA TYPHIMURIUM, Strain/Indicator: TA98(1,8-DNP), Metabolic Activation: NONE, Method: PREINCUBATION active; positive | Test System: AMES SALMONELLA TYPHIMURIUM, Strain/Indicator: TA98(1,8-DNP), Metabolic Activation: RAT, LIVER, S-9, PCB, Method: PREINCUBATION active; positive | Test System: AMES SALMONELLA TYPHIMURIUM, Strain/Indicator: TA98(NR), Metabolic Activation: NONE, Method: PREINCUBATION active; positive | Test System: AMES SALMONELLA TYPHIMURIUM, Strain/Indicator: TA98(NR), Metabolic Activation: RAT, LIVER, S-9, PCB, Method: PREINCUBATION active; positive | [1] active; positive | Test System: AMES SALMONELLA TYPHIMURIUM, Strain/Indicator: TA98, Metabolic Activation: RAT, LIVER, S-9, PCB, Method: PREINCUBATION active; positive | Test System: AMES SALMONELLA TYPHIMURIUM, Strain/Indicator: TA100(1,8-DNP), Metabolic Activation: NONE, Method: PREINCUBATION active; positive | Test System: AMES SALMONELLA TYPHIMURIUM, Strain/Indicator: TA100(NR), Metabolic Activation: NONE, Method: PREINCUBATION active; positive | Test System: AMES SALMONELLA TYPHIMURIUM, Strain/Indicator: TA100(NR), Metabolic Activation: RAT, LIVER, S-9, PCB, Method: PREINCUBATION active; positive | [2] active; positive | Test System: AMES SALMONELLA TYPHIMURIUM, Strain/Indicator: TA100, Metabolic Activation: RAT, LIVER, S-9, PCB, Method: PREINCUBATION active; positive | Test System: AMES SALMONELLA TYPHIMURIUM, Strain/Indicator: YG1020, Metabolic Activation: NONE, Method: PREINCUBATION active; positive | Test System: AMES SALMONELLA TYPHIMURIUM, Strain/Indicator: YG1020, Metabolic Activation: RAT, LIVER, S-9, PCB, Method: PREINCUBATION active; positive | Test System: AMES SALMONELLA TYPHIMURIUM, Strain/Indicator: YG1021, Metabolic Activation: NONE, Method: PREINCUBATION active; positive | Test System: AMES SALMONELLA TYPHIMURIUM, Strain/Indicator: YG1021, Metabolic Activation: RAT, LIVER, S-9, PCB, Method: PREINCUBATION active; positive | Test System: AMES SALMONELLA TYPHIMURIUM, Strain/Indicator: YG1024, Metabolic Activation: NONE, Method: PREINCUBATION active; positive | Test System: AMES SALMONELLA TYPHIMURIUM, Strain/Indicator: YG1024, Metabolic Activation: RAT, LIVER, S-9, PCB, Method: PREINCUBATION active; positive | Test System: AMES SALMONELLA TYPHIMURIUM, Strain/Indicator: YG1025, Metabolic Activation: NONE, Method: PREINCUBATION active; positive | Test System: AMES SALMONELLA TYPHIMURIUM, Strain/Indicator: YG1025, Metabolic Activation: RAT, LIVER, S-9, PCB, Method: PREINCUBATION active; positive | Test System: AMES SALMONELLA TYPHIMURIUM, Strain/Indicator: YG1026, Metabolic Activation: NONE, Method: PREINCUBATION active; positive | Test System: AMES SALMONELLA TYPHIMURIUM, Strain/Indicator: YG1026, Metabolic Activation: RAT, LIVER, S-9, PCB, Method: PREINCUBATION active; positive | Test System: AMES SALMONELLA TYPHIMURIUM, Strain/Indicator: YG1029, Metabolic Activation: NONE, Method: PREINCUBATION active; positive | Test System: AMES SALMONELLA TYPHIMURIUM, Strain/Indicator: YG1029, Metabolic Activation: RAT, LIVER, S-9, PCB, Method: PREINCUBATION active; positive

CC(=O)Oc1ccc2c(c1)OC1(C)OOC21C (stereo unspecified)
active: [2] active; positive

CC(C)c1c(C(=O)Nc2ccccc2)c(-c2ccccc2)c(-c2ccc(F)cc2)n1CC[C@@H](O)C[C@@H](O)CC(=O)O
inactive: Test System: AMES SALMONELLA TYPHIMURIUM, Strain/Indicator: TA98, Metabolic Activation: NONE, Method: STANDARD PLATE inactive; negative | Test System: AMES SALMONELLA TYPHIMURIUM, Strain/Indicator: TA98, Metabolic Activation: RAT, LIVER, S-9, AROCLOR 1254, Method: STANDARD PLATE inactive; negative | Test System: AMES SALMONELLA TYPHIMURIUM, Strain/Indicator: TA100, Metabolic Activation: NONE, Method: STANDARD PLATE inactive; negative | Test System: AMES SALMONELLA TYPHIMURIUM, Strain/Indicator: TA100, Metabolic Activation: RAT, LIVER, S-9, AROCLOR 1254, Method: STANDARD PLATE inactive; negative | Test System: AMES SALMONELLA TYPHIMURIUM, Strain/Indicator: TA1535, Metabolic Activation: NONE, Method: STANDARD PLATE inactive; negative | Test System: AMES SALMONELLA TYPHIMURIUM, Strain/Indicator: TA1535, Metabolic Activation: RAT, LIVER, S-9, AROCLOR 1254, Method: STANDARD PLATE inactive; negative | Test System: AMES SALMONELLA TYPHIMURIUM, Strain/Indicator: TA1537, Metabolic Activation: NONE, Method: STANDARD PLATE inactive; negative | Test System: AMES SALMONELLA TYPHIMURIUM, Strain/Indicator: TA1537, Metabolic Activation: RAT, LIVER, S-9, AROCLOR 1254, Method: STANDARD PLATE inactive; negative | Test System: AMES SALMONELLA TYPHIMURIUM, Strain/Indicator: TA1538, Metabolic Activation: NONE, Method: STANDARD PLATE inactive; negative | Test System: AMES SALMONELLA TYPHIMURIUM, Strain/Indicator: TA1538, Metabolic Activation: RAT, LIVER, S-9, AROCLOR 1254, Method: STANDARD PLATE inactive; negative | Test System: CHINESE HAMSTER V-79, Strain/Indicator: V-79 (HGPRT)/6-THIOGUANINE, Metabolic Activation: NONE inactive; negative | Test System: CHINESE HAMSTER V-79, Strain/Indicator: V-79 (HGPRT)/6-THIOGUANINE, Metabolic Activation: RAT, LIVER, S-9, AROCLOR 1254 inactive; negative | Test System: E. COLI, Strain/Indicator: WP2 UVRA, Metabolic Activation: NONE, Method: STANDARD PLATE inactive; negative | Test System: E. COLI, Strain/Indicator: WP2 UVRA, Metabolic Activation: RAT, LIVER, S-9, AROCLOR 1254, Method: STANDARD PLATE inactive; negative

Cc1ccc(C(C)(C)C)cc1
inactive: Test System: AMES SALMONELLA TYPHIMURIUM, Strain/Indicator: TA98, Metabolic Activation: HAMSTER, LIVER, S-9, AROCLOR 1254 (10%), Method: PREINCUBATION inactive; negative | [1] inactive; negative | Test System: AMES SALMONELLA TYPHIMURIUM, Strain/Indicator: TA98, Metabolic Activation: RAT, LIVER, S-9, AROCLOR 1254 (10%), Method: PREINCUBATION inactive; negative | Test System: AMES SALMONELLA TYPHIMURIUM, Strain/Indicator: TA100, Metabolic Activation: HAMSTER, LIVER, S-9, AROCLOR 1254 (10%), Method: PREINCUBATION inactive; negative | [2] inactive; negative | Test System: AMES SALMONELLA TYPHIMURIUM, Strain/Indicator: TA100, Metabolic Activation: RAT, LIVER, S-9, AROCLOR 1254 (10%), Method: PREINCUBATION inactive; negative | Test System: AMES SALMONELLA TYPHIMURIUM, Strain/Indicator: TA1535, Metabolic Activation: HAMSTER, LIVER, S-9, AROCLOR 1254 (10%), Method: PREINCUBATION inactive; negative | Test System: AMES SALMONELLA TYPHIMURIUM, Strain/Indicator: TA1535, Metabolic Activation: NONE, Method: PREINCUBATION inactive; negative | Test System: AMES SALMONELLA TYPHIMURIUM, Strain/Indicator: TA1535, Metabolic Activation: RAT, LIVER, S-9, AROCLOR 1254 (10%), Method: PREINCUBATION inactive; negative | Test System: AMES SALMONELLA TYPHIMURIUM, Strain/Indicator: TA1537, Metabolic Activation: HAMSTER, LIVER, S-9, AROCLOR 1254 (10%), Method: PREINCUBATION inactive; negative | Test System: AMES SALMONELLA TYPHIMURIUM, Strain/Indicator: TA1537, Metabolic Activation: NONE, Method: PREINCUBATION inactive; negative | Test System: AMES SALMONELLA TYPHIMURIUM, Strain/Indicator: TA1537, Metabolic Activation: RAT, LIVER, S-9, AROCLOR 1254 (10%), Method: PREINCUBATION inactive; negative

NC(=O)Nc1nc2ccccc2[nH]1
active: Test System: AMES SALMONELLA TYPHIMURIUM, Strain/Indicator: TA98, Metabolic Activation: HAMSTER, LIVER, S-9, AROCLOR 1254 (30%), Method: PREINCUBATION active; positive | [1] active; positive | Test System: AMES SALMONELLA TYPHIMURIUM, Strain/Indicator: TA98, Metabolic Activation: RAT, LIVER, S-9, AROCLOR 1254 (30%), Method: PREINCUBATION active; positive
inactive: Test System: AMES SALMONELLA TYPHIMURIUM, Strain/Indicator: TA100, Metabolic Activation: HAMSTER, LIVER, S-9, AROCLOR 1254 (30%), Method: PREINCUBATION inactive; negative | [2] inactive; negative | Test System: AMES SALMONELLA TYPHIMURIUM, Strain/Indicator: TA100, Metabolic Activation: RAT, LIVER, S-9, AROCLOR 1254 (30%), Method: PREINCUBATION inactive; negative
